# Columns and labels:
# [1] = system: Daudi cell line (AID positive); assay: Primary screening cell killing assay (Cell-Titer Glo, Day 7); type: cell-based; conditions: Homo sapiens, 168 h; Daudi cells (AID positive), cell death on Day 7; read-out: AID+ EC50
# Procedure, shortened: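 Daudi cells (AID positive), 1250 per well, were treated with serially diluted compounds and incubated at 37° C. Viability was read by Cell-Titer Glo on Day 7. Percent cell death and EC50 came from media-subtracted RLU of treated wells relative to non-treated wells.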
# [2] = Human liver microsome stability; type: in vitro ADME; conditions: percentage of hepatic blood flow
# Protocol: The stability of the claimed compounds was determined in the presences of human liver microsomes. The compounds were incubated with the microsomes at 37° C. for 45 minutes. Samples were analyzed using LC-MS/MS. Data analysis included half-life, clearance rate, and the percentage of hepatic blood flow (% QH) for each of the compounds in the different species.
# [3] = Pharmacokinetic (PK) study; type: in vivo, Rat; conditions: po @ 80 mg/kg (30% PEG400, 10% Vitamin E TPGS in water)
# Protocol: PK studies in mice were used to determine the fate of the compounds in a whole organism. Rats were treated with the compounds either orally of via IV at the indicated doses and followed for up to 24 hours. Plasma samples were taken at different time points and analyzed by LC-MS.
# J000101173 model = assay: Tumor growth inhibition, subcutaneous engrafted tumor model; type: in vivo, mice; conditions: HRD Positive, RAD51 Low, BRCA WT, PALB2 WT, 67A 40 mg/kg QD, olaparib 50 mg/kg QD, combo both
# Protocol: (§1) Immunodeficient mice were subcutaneously engrafted in the rear flank with the tumor cells. The tumors were allowed to grow to a size of about 100 to about 200 mm^3 prior to being randomized and grouped into treatment arms. For models […] through […] the four treatment arms were vehicle, Compound 67A at 80 mg/kg QD, olaparib at 100 mg/kg QD, and Compound 67A+Olaparib at 80 mg/kg QD and 100 mg/kg QD, respectively. For models J000101173 through TM00091 the treatment arms were vehicle, Compound 67A at 40 mg/kg QD, olaparib at 50 mg/kg QD, and Compound 67A+Olaparib at 40 mg/kg QD and 50 mg/kg QD, respectively. The tumors were measured either once weekly or twice weekly.
# (§2) Percent Tumor Growth Inhibition (% TGI) was calculated by taking the mean volume of each of the treatment arms, and comparing the treatment arms to the vehicle arms using the following equation
# HBCx11 model = assay: as above; type: in vivo, mice; conditions: HRD Positive, RAD51 High, BRCA1 Mut, PALB2 WT, 67A 80 mg/kg QD, olaparib 100 mg/kg QD, combo both
# Protocol: as §1, §2
# TM00091 model = assay: as above; type: in vivo, mice; conditions: HRD Positive, RAD51 High, BRCA1 Mut, PALB2 WT, 67A 40 mg/kg QD, olaparib 50 mg/kg QD, combo both
# Protocol: as §1, §2
# HBCx17 model = assay: as above; type: in vivo, mice; conditions: HRD Positive, RAD51 High, BRCA2 Mut, PALB2 WT, 67A 80 mg/kg QD, olaparib 100 mg/kg QD, combo both
# Protocol: as §1, §2
# TM00096 model = assay: as above; type: in vivo, mice; conditions: HRD Positive, RAD51 Low, BRCA WT, PALB2 WT, 67A 40 mg/kg QD, olaparib 50 mg/kg QD, combo both
# Protocol: as §1, §2
# HBCx12B model = assay: as above; type: in vivo, mice; conditions: HRD Positive, RAD51 High, BRCA1 Meth, PALB2 WT, 67A 80 mg/kg QD, olaparib 100 mg/kg QD, combo both
# Protocol: as §1, §2
compound,measurement,setting,value
"CC(C)OC(=O)Nc1ccc(-c2cnc([C@H]3CC[C@H](NC(=O)OC(C)C)CC3)s2)c(S(=O)(=O)NC(C)(C)C)c1 [Compound 67A, trans-isopropylN-[3-(tert-butylsulfamoyl)-4-[2-[4-(isopropoxycarbonylamino)cyclohexyl]thiazol-5-yl]phenyl]carbamate]",EC50,[1],≤ 1000 nM
same,Human Liver Microsome Stability % QH,[2],<20.3%
same,F (%) @ 5 mg/kg,[3]; Rat Female,86.5%
same,F (%) @ 5 mg/kg,[3]; Rat Male,46.9%
same,% TGI,J000101173 model,19.87%
same,% TGI,HBCx11 model,23.39%
same,% TGI,TM00091 model,27%
same,% TGI,HBCx17 model,−51.13%
same,% TGI,TM00096 model,−25.4%
same,% TGI,HBCx12B model,−3.27%

# — patent publication US11607404B2, “Combinations of RAD51 and PARP inhibitors” (Cyteir Therapeutics, Inc., priority 2019, dated 2023)
